# In publication PMC12102759 (Protein Science : A Publication of the Protein Society, 2025):
# Where two headings read alike, the source gives them in different places.
# Tested on: PABPC1 PABC
# Assay type: binding, human
# Settings: DMS-BM library, bait PABPC1 PABC, row aa = residue at this position
# [1] = prey ATXN2, TLNPNAKEFNPRSF(averaged) over the two overlapping peptides, N = wild type
# [2] = prey ATXN2, TLNPNAKEFNPRSF(averaged) over the two overlapping peptides, E = wild type
# [3] = prey ATXN2, peptide TLNPNAKEFNPRSFSQ, F = wild type
# [4] = prey ATXN2, peptide KSTLNPNAKEFNPRSF, P = wild type
# [5] = prey ATXN2, peptide KSTLNPNAKEFNPRSF, N = wild type
# [6] = prey ATXN2, peptide KSTLNPNAKEFNPRSF, S = wild type
# [7] = prey ATXN2, TLNPNAKEFNPRSF(averaged) over the two overlapping peptides, K = wild type
# [8] = prey ATXN2, peptide TLNPNAKEFNPRSFSQ, N = wild type
# [9] = prey ATXN2, peptide TLNPNAKEFNPRSFSQ, P = wild type
# [10] = prey ATXN2, peptide TLNPNAKEFNPRSFSQ, R = wild type
# [11] = prey ATXN2, peptide TLNPNAKEFNPRSFSQ, S = wild type
# [12] = prey ATXN2, TLNPNAKEFNPRSF(averaged) over the two overlapping peptides, P = wild type
substance,measurement,setting,value
KSTLNPNAKEFNPRSF L4T (KSTTNPNAKEFNPRSF),"DMS-derived PSSM value, position L4","prey ATXN2, peptide KSTLNPNAKEFNPRSF, L = wild type",0
TLNPNAKEFNPRSF(averaged) R12D (TLNPNAKEFNPDSF),"DMS-derived PSSM value (averaged), position R12","prey ATXN2, TLNPNAKEFNPRSF(averaged) over the two overlapping peptides, R = wild type",0.02577
TLNPNAKEFNPRSF(averaged) N10P (TLNPNAKEFPPRSF),"DMS-derived PSSM value (averaged), position N10",[1],0.03074
TLNPNAKEFNPRSF(averaged) E8H (TLNPNAKHFNPRSF),"DMS-derived PSSM value (averaged), position E8",[2],0.2075
TLNPNAKEFNPRSFSQ F9G (TLNPNAKEGNPRSFSQ),"DMS-derived PSSM value, position F9",[3],0
TLNPNAKEFNPRSF(averaged) T1A (ALNPNAKEFNPRSF),"DMS-derived PSSM value (averaged), position T1","prey ATXN2, TLNPNAKEFNPRSF(averaged) over the two overlapping peptides, T = wild type",0.03742
TLNPNAKEFNPRSF(averaged) N5Q (TLNPQAKEFNPRSF),"DMS-derived PSSM value (averaged), position N5",[1],0.02375
TLNPNAKEFNPRSF(averaged) L2Y (TYNPNAKEFNPRSF),"DMS-derived PSSM value (averaged), position L2","prey ATXN2, TLNPNAKEFNPRSF(averaged) over the two overlapping peptides, L = wild type",0.0552
KSTLNPNAKEFNPRSF P6R (KSTLNRNAKEFNPRSF),"DMS-derived PSSM value, position P6",[4],0
KSTLNPNAKEFNPRSF N5D (KSTLDPNAKEFNPRSF),"DMS-derived PSSM value, position N5",[5],0
TLNPNAKEFNPRSFSQ F9Q (TLNPNAKEQNPRSFSQ),"DMS-derived PSSM value, position F9",[3],0
KSTLNPNAKEFNPRSF S15Y (KSTLNPNAKEFNPRYF),"DMS-derived PSSM value, position S15",[6],0.02596
KSTLNPNAKEFNPRSF N7D (KSTLNPDAKEFNPRSF),"DMS-derived PSSM value, position N7",[5],0.07378
TLNPNAKEFNPRSF(averaged) K7H (TLNPNAHEFNPRSF),"DMS-derived PSSM value (averaged), position K7",[7],0.03669
KSTLNPNAKEFNPRSF N7G (KSTLNPGAKEFNPRSF),"DMS-derived PSSM value, position N7",[5],0
TLNPNAKEFNPRSF(averaged) E8T (TLNPNAKTFNPRSF),"DMS-derived PSSM value (averaged), position E8",[2],0.1317
TLNPNAKEFNPRSFSQ,"DMS-derived PSSM value, position A6","prey ATXN2, peptide TLNPNAKEFNPRSFSQ, A = wild type",0.3958
same,"DMS-derived PSSM value, position E8","prey ATXN2, peptide TLNPNAKEFNPRSFSQ, E = wild type",0.1068
same,"DMS-derived PSSM value, position F9",[3],0.2105
same,"DMS-derived PSSM value, position F14",[3],0.06109
same,"DMS-derived PSSM value, position K7","prey ATXN2, peptide TLNPNAKEFNPRSFSQ, K = wild type",0.0126
same,"DMS-derived PSSM value, position L2","prey ATXN2, peptide TLNPNAKEFNPRSFSQ, L = wild type",0.3849
same,"DMS-derived PSSM value, position N3",[8],0.2805
same,"DMS-derived PSSM value, position N5",[8],0.009358
same,"DMS-derived PSSM value, position N10",[8],0.0868
same,"DMS-derived PSSM value, position P4",[9],0.1257
same,"DMS-derived PSSM value, position P11",[9],0.07425
same,"DMS-derived PSSM value, position R12",[10],0.03868
same,"DMS-derived PSSM value, position S13",[11],0.06246
same,"DMS-derived PSSM value, position S15",[11],0.03177
same,"DMS-derived PSSM value, position T1","prey ATXN2, peptide TLNPNAKEFNPRSFSQ, T = wild type",0.03795
TLNPNAKEFNPRSF(averaged) K7S (TLNPNASEFNPRSF),"DMS-derived PSSM value (averaged), position K7",[7],0.03571
KSTLNPNAKEFNPRSF P13Q (KSTLNPNAKEFNQRSF),"DMS-derived PSSM value, position P13",[4],0.08339
KSTLNPNAKEFNPRSF K9D (KSTLNPNADEFNPRSF),"DMS-derived PSSM value, position K9","prey ATXN2, peptide KSTLNPNAKEFNPRSF, K = wild type",0.007291
TLNPNAKEFNPRSF(averaged) P4I (TLNINAKEFNPRSF),"DMS-derived PSSM value (averaged), position P4",[12],0.2825
TLNPNAKEFNPRSF(averaged) P11D (TLNPNAKEFNDRSF),"DMS-derived PSSM value (averaged), position P11",[12],0.002991
TLNPNAKEFNPRSF(averaged) P11L (TLNPNAKEFNLRSF),"DMS-derived PSSM value (averaged), position P11",[12],0.01529
KSTLNPNAKEFNPRSF S15A (KSTLNPNAKEFNPRAF),"DMS-derived PSSM value, position S15",[6],0.02636
TLNPNAKEFNPRSF(averaged) P4M (TLNMNAKEFNPRSF),"DMS-derived PSSM value (averaged), position P4",[12],0.0005819
TLNPNAKEFNPRSFSQ N10E (TLNPNAKEFEPRSFSQ),"DMS-derived PSSM value, position N10",[8],0.00197
TLNPNAKEFNPRSF(averaged) A6E (TLNPNEKEFNPRSF),"DMS-derived PSSM value (averaged), position A6","prey ATXN2, TLNPNAKEFNPRSF(averaged) over the two overlapping peptides, A = wild type",0
KSTLNPNAKEFNPRSF F11E (KSTLNPNAKEENPRSF),"DMS-derived PSSM value, position F11","prey ATXN2, peptide KSTLNPNAKEFNPRSF, F = wild type",0
TLNPNAKEFNPRSFSQ R12L (TLNPNAKEFNPLSFSQ),"DMS-derived PSSM value, position R12",[10],0.01731
TLNPNAKEFNPRSF(averaged) N10S (TLNPNAKEFSPRSF),"DMS-derived PSSM value (averaged), position N10",[1],0.02002
TLNPNAKEFNPRSF(averaged) N3V (TLVPNAKEFNPRSF),"DMS-derived PSSM value (averaged), position N3",[1],0
KSTLNPNAKEFNPRSF P13K (KSTLNPNAKEFNKRSF),"DMS-derived PSSM value, position P13",[4],0
